From article PMC10282731, “Pyrrolo[2,3-e]indazole as a novel chemotype for both influenza A virus and pneumococcal neuraminidase inhibitors” (RSC Advances, 2023)
≈ marks a conversion by molar mass, not a printed value. Where “and” joins values, the source holds several entries; their conditions need not be identical. Equal entries are not always repeated. Where two headings read alike, the source gives them in different places.

Experiments:
[1] = system: S. pneumoniae DSM20566; assay: Biofilm formation inhibition assay (crystal violet); format: cell-based, Streptococcus pneumoniae; conditions: read-out: IC50 Biofilm formation
[2] = system: MDCK cells; conditions: read-out: CC50 (MDCK), 72 h incubation, maximum 100 µM
[3] = system: influenza A virus A/HK/1/68 (subtype H3N2); assay: Influenza A virus-induced CPE inhibition assay in MDCK cells (A/HK/1/68); format: cell-based; conditions: H3N2, 48 h, maximum 100 µM, n.a. = not active, read-out: IC50 (IAV) HK/1/68
[4] = target: neuraminidase NanA of S. pneumoniae strain DSM20566 (Streptococcus pneumoniae, UniProt P62575); assay: Lectin-based hemagglutination NA inhibition assay with pneumococcal neuraminidase; format: biochemical; conditions: ethanol-precipitated proteins of S. pneumoniae DSM20566, lectin-based hemagglutination assay
neuraminidase NanA of S. pneumoniae strain DSM20566, sequence (P62575 54-1035): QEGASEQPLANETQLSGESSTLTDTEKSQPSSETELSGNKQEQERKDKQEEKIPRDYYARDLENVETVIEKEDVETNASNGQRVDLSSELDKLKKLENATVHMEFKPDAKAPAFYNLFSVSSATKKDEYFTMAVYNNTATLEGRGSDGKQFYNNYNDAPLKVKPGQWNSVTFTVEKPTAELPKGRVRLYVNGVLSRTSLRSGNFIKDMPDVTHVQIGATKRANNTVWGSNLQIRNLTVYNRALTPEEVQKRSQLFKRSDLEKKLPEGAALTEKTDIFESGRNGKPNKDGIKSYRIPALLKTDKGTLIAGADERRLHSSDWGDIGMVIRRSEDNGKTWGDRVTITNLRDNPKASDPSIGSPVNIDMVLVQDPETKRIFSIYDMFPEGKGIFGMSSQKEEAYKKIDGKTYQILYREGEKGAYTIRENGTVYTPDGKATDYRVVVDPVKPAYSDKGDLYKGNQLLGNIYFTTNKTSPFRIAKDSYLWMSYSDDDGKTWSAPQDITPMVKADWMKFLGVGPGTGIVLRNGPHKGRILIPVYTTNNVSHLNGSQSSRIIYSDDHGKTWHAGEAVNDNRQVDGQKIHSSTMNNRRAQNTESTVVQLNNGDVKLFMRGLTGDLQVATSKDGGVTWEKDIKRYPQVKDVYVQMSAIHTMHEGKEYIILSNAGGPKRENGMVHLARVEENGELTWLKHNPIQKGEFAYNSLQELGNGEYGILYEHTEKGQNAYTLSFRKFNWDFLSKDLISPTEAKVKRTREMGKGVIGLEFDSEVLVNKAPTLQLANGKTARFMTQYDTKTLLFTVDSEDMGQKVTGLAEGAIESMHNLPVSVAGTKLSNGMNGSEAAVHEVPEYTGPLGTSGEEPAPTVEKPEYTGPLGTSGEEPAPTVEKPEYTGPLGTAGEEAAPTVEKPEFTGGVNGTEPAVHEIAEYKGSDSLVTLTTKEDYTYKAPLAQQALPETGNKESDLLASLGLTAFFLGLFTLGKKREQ

[5] = system: neuraminidase of influenza A virus (IAV NA); assay: Human erythrocyte-based (hemagglutination-based) viral neuraminidase inhibition assay; format: biochemical, influenza A virus A/Jena/8178/09; conditions: human erythrocytes, 37 °C for 24 h, maximum 100 µM for test compounds
[6] = system: S. pneumoniae DSM20566; assay: Planktonic growth inhibition, microtiter broth microdilution assay; format: cell-based, Streptococcus pneumoniae; conditions: read-out: IC50 Planktonic growth
[7] = system: influenza A virus A/Jena/8178/09 (subtype A(H1N1)pdm09); assay: Influenza A virus-induced CPE inhibition assay in MDCK cells (A/Jena/8178/09); format: cell-based; conditions: A(H1N1)pdm09, 48 h, maximum 100 µM, n.a. = not active, read-out: IC50 (IAV) Jena/8178
[8] = in vitro; conditions: dog

Row | Molecule | MIC S.p. NanA (minimum neuraminidase inhibitory concentration) [4] | MIC IAV NA (minimum neuraminidase inhibitory concentration) [5] | melting point [°C] | IC50 ([7]; Influenza A virus) [µM] | CC50 at 72 h [8] [µM] | also measured
1 | 5-Hydroxy-3-ethoxycarbonyl-2-methyl-6-phenyl-8-[4-(trifluoromethyl)phenyl]-pyrrolo[2,3-e]indazole [Compound 6h] | 10.0 µM and 10.00 µM | 24.40 µM | – | – | – | IC50 ([1]; S. pneumoniae DSM20566, 24 h, crystal violet, maximum 50 μM): 40.1 µM; CC50 [2]: > 100 µM; IC50 [3]: 30.5 µM; IC50 ([6]; S. pneumoniae DSM20566, 18 h, OD 620 nm, maximum 50 μM): 50 µM; IC50 [7]: 24.8 µM
2 | 5-Hydroxy-3-ethoxycarbonyl-2-methyl-8-(4-nitrophenyl)-6-phenyl-pyrrolo[2,3-e]indazole [Compound 6e] | 14.32 µM | 54.40 µM | – | – | – | CC50 [2]: > 100 µM; IC50 [3]: 16.4 µM; IC50 [7]: 19.5 µM
3 | 5-hydroxy-3-ethoxycarbonyl-2-methyl-6,8-diphenyl-pyrrolo[2,3-e]indazole [Compound 6a] | 31.60 µM | 70.00 µM | – | – | – | CC50 [2]: > 100 µM
4 | CCOC(=O)c1c(C)n(C)c2c1cc(O)c1c2c(-c2ccccc2)nn1-c1ccccc1 [Compound 6b, 5-Hydroxy-3-ethoxycarbonyl-1,2-dimethyl-6,8-diphenyl-pyrrolo[2,3-e]indazole] | 31.60 µM (≈ 13.4 µg/mL) | 31.60 µM (≈ 13.4 µg/mL) | 270 to 272 | 31.6 | > 100 | –
5 | CCOC(=O)c1c(C)n(Cc2ccccc2)c2c1cc(O)c1c2c(-c2ccccc2)nn1-c1ccccc1 [Compound 6c, 1-Benzyl-5-hydroxy-3-ethoxycarbonyl-2-methyl-6,8-diphenyl-pyrrolo[2,3-e]indazole] | 24.40 µM (≈ 12.2 µg/mL) | 77.20 µM (≈ 38.7 µg/mL) | 256 to 258 | 71.1 | – | IC50 ([1]; Streptococcus pneumoniae, DSM20566, 24 h): 0.93 µM; IC50 ([6]; Streptococcus pneumoniae, DSM20566, 18 h): 8.9 µM; CC50 [8]: > 100 µM
6 | CCOC(=O)c1c(C)n(-c2ccc(OC)cc2)c2c1cc(O)c1c2c(-c2ccccc2)nn1-c1ccccc1 [Compound 6d, 5-Hydroxy-3-ethoxycarbonyl-1-(4-methoxyphenyl)-2-methyl-6,8-diphenyl-pyrrolo[2,3-e]indazole] | 17.20 µM (≈ 8.9 µg/mL) | 54.40 µM (≈ 28.2 µg/mL) | 277 to 279 | 38.6 | > 100 | –
7 | CCOC(=O)c1c(C)n(C)c2c1cc(O)c1c2c(-c2ccc([N+](=O)[O-])cc2)nn1-c1ccccc1 [Compound 6f, 5-Hydroxy-3-ethoxycarbonyl-1,2-dimethyl-8-(4-nitrophenyl)-6-phenyl-pyrrolo[2,3-e]indazole] | 31.60 µM (≈ 14.9 µg/mL) | 77.20 µM (≈ 36.3 µg/mL) | 258 to 261 | – | > 100 | IC50 ([3]; Influenza A virus): 42.5 µM
8 | CCOC(=O)c1c(C)n(Cc2ccccc2)c2c1cc(O)c1c2c(-c2ccc([N+](=O)[O-])cc2)nn1-c1ccccc1 [Compound 6g, 1-Benzyl-5-hydroxy-3-ethoxycarbonyl-2-methyl-8-(4-nitrophenyl)-6-phenyl-pyrrolo[2,3-e]indazole] | – | – | 226 to 228 | – | – | CC50 [8]: > 100 µM
9 | CCOC(=O)c1c(C)[nH]c2c1cc(O)c1c2c(-c2ccc(CC)cc2)nn1-c1ccccc1 [Compound 6j] | – | – | – | – | > 100 | IC50 ([3]; Influenza A virus): 52.2 µM
10 | CCOC(=O)c1c(C)[nH]c2c1cc(O)c1c2c(-c2cc(Cl)cc(Cl)c2)nn1-c1ccccc1 [Compound 6k] | – | – | – | – | > 100 | IC50 ([3]; Influenza A virus): 30.2 µM
11 | CCOC(=O)c1c(C)n(C)c2c1cc(OC(C)=O)c1c2c(-c2ccccc2)nn1-c1ccccc1 [Compound 7a] | 31.60 µM (≈ 14.8 µg/mL) | 100.00 µM (≈ 46.8 µg/mL) | 214 to 216 | 83.7 | > 100 | –
12 | CCOC(=O)c1c(C)n(Cc2ccccc2)c2c1cc(OC(C)=O)c1c2c(-c2ccccc2)nn1-c1ccccc1 [Compound 7b] | 31.60 µM (≈ 17.2 µg/mL) | 100.00 µM (≈ 54.4 µg/mL) | – | 38.7 | – | CC50 [8]: > 100 µM
13 | CCOC(=O)c1c(CN2CCCCC2)n(C)c2c1cc(OC(C)=O)c1c2c(-c2ccccc2)nn1-c1ccccc1 [Compound 9a] | 54.40 µM (≈ 30 µg/mL) | does not inhibit | 203 to 205 | – | > 100 | –
